Experimental data taken from patent US6656952B2, “Cis-substituted fluoromethylpyrrolidine derivative” (Daiichi Pharmaceutical Co., Ltd., priority 1997, dated 2003).
In brackets after ≈: the same amount, converted by molar mass.

Legend:
S. epidermidis, 56500 = assay: Antibacterial activity (MIC), standard method of the Japan Society of Chemotherapy; type: cell-based; settings: Staphylococcus epidermidis, read-out: Antibacterial activity (minimum inhibitory concentration)
Protocol: (§1) Examples of the present invention are given below by way of illustration and not by way of limitation. The antibacterial activity of each compound of interest was measured in accordance with the standard method specified by the Japan Society of Chemotherapy, with the results shown in Table 1 as MIC values (μg/ml).

Ps. aeruginosa, 32121 = assay: as above; type: cell-based; settings: Pseudomonas aeruginosa, read-out: Antibacterial activity (minimum inhibitory concentration)
Protocol: as §1

Pr. vulgaris, 08601 = assay: as above; type: cell-based; settings: Proteus vulgaris, read-out: Antibacterial activity (minimum inhibitory concentration)
Protocol: as §1

Ser. marcescens, 10100 = assay: as above; type: cell-based; settings: Serratia marcescens, read-out: Antibacterial activity (minimum inhibitory concentration)
Protocol: as §1

X. maltophilia, IID 1275 = assay: as above; type: cell-based; settings: Stenotrophomonas maltophilia, IID1275, read-out: Antibacterial activity (minimum inhibitory concentration)
Protocol: as §1

Pr. mirabilis, IFO- 3849 = assay: as above; type: cell-based; settings: Proteus mirabilis, IFO3849, read-out: Antibacterial activity (minimum inhibitory concentration)
Protocol: as §1

S. flexneli, 2A 5503 = assay: as above; type: cell-based; settings: read-out: Antibacterial activity (minimum inhibitory concentration)
Protocol: as §1

Str. pyogenes, G-36 = assay: as above; type: cell-based; settings: Streptococcus pyogenes, G36, read-out: Antibacterial activity (minimum inhibitory concentration)
Protocol: as §1

E. coli, NIHJ = assay: as above; type: cell-based; settings: Escherichia coli, read-out: Antibacterial activity (minimum inhibitory concentration)
Protocol: as §1

Ps. aeruginosa, 32104 = assay: as above; type: cell-based; settings: Pseudomonas aeruginosa, read-out: Antibacterial activity (minimum inhibitory concentration)
Protocol: as §1

S. aureus, 209P = assay: as above; type: cell-based; settings: Staphylococcus aureus, read-out: Antibacterial activity (minimum inhibitory concentration)
Protocol: as §1

[1] = system: Str. faecalis, ATCC-19433; assay: as above; type: cell-based; settings: Enterococcus faecalis, ATCC19433, read-out: Antibacterial activity (minimum inhibitory concentration)
Protocol: as §1

S. aureus, 870307 = assay: as above; type: cell-based; settings: Staphylococcus aureus, read-out: Antibacterial activity (minimum inhibitory concentration)
Protocol: as §1

mouse peripheral blood = assay: Mouse peripheral blood micronucleus test; type: in vivo

Row | SMILES | MIC (S. epidermidis, 56500) [µg/mL] | MIC (Ps. aeruginosa, 32121) [µg/mL] | MIC (Pr. vulgaris, 08601) [µg/mL] | MIC (Ser. marcescens, 10100) [µg/mL] | MIC (X. maltophilia, IID 1275) [µg/mL] | MIC (Pr. mirabilis, IFO- 3849) [µg/mL] | MIC (S. flexneli, 2A 5503) [µg/mL] | MIC (Str. pyogenes, G-36) [µg/mL] | MIC (E. coli, NIHJ) [µg/mL] | MIC (Ps. aeruginosa, 32104) [µg/mL] | MIC (S. aureus, 209P) [µg/mL] | MIC [1] [µg/mL] | MIC (S. aureus, 870307) [µg/mL] | micronucleus test (micronucleus inducing action) (mouse peripheral blood)
1 | COc1c(N2C[C@@H](CF)[C@@H](N)C2)c(F)cc2c(=O)c(C(=O)O)cn(C3CC3)c12 [Comp. Ex. 1, 7-[3-(R)-Amino-4-(R)-fluoromethyl-1-pyrrolidinyl]-1-cyclopropyl-6-fluoro-1,4-dihydro-8-methoxy-4-oxoquinoline-3-carboxylic acid, reference compound] | 0.1 (≈ 0.254 µM) | 0.1 (≈ 0.254 µM) | 0.013 (≈ 0.033 µM) | 0.1 (≈ 0.254 µM) | 0.2 (≈ 0.508 µM) | 0.1 (≈ 0.254 µM) | 0.013 (≈ 0.033 µM) | 0.2 (≈ 0.508 µM) | ≤ 0.003 | 0.2 (≈ 0.508 µM) | 0.025 (≈ 0.0636 µM) | 0.2 (≈ 0.508 µM) | 0.78 (≈ 1.98 µM) | 
2 | COc1c(N2C[C@H](CF)[C@H](N)C2)c(F)cc2c(=O)c(C(=O)O)cn([C@@H]3C[C@@H]3F)c12 [Ex. 1, 7-[3-(S)-Amino-4-(S)-fluoromethyl-1-pyrrolidinyl]-6-fluoro-1-[2-(S)-fluoro-1-(R)-cyclopropyl]-1,4-dihydro-8-methoxy-4-oxoquinoline-3-carboxylic acid] | 0.05 (≈ 0.122 µM) | 0.05 (≈ 0.122 µM) | 0.013 (≈ 0.0316 µM) | 0.05 (≈ 0.122 µM) | 0.2 (≈ 0.486 µM) | 0.025 (≈ 0.0608 µM) | 0.006 (≈ 0.0146 µM) | 0.1 (≈ 0.243 µM) | ≤ 0.003 | 0.2 (≈ 0.486 µM) | 0.013 (≈ 0.0316 µM) | 0.1 (≈ 0.243 µM) | 0.2 (≈ 0.486 µM) | 
3 | COc1c(N2C[C@H](CF)[C@H](N)C2)c(F)cc2c(=O)c(C(=O)O)cn(C3CC3)c12 [Ex. 2, 7-[3-(S)-Amino-4-(S)-fluoromethyl-1-pyrrolidinyl]-1-cyclopropyl-6-fluoro-1,4-dihydro-8-methoxy-4-oxoquinoline-3-carboxylic acid] | 0.05 (≈ 0.127 µM) | 0.1 (≈ 0.254 µM) | 0.013 (≈ 0.033 µM) | 0.05 (≈ 0.127 µM) | 0.1 (≈ 0.254 µM) | 0.05 (≈ 0.127 µM) | 0.006 (≈ 0.0153 µM) | 0.1 (≈ 0.254 µM) | ≤ 0.003 | 0.2 (≈ 0.508 µM) | 0.013 (≈ 0.033 µM) | 0.1 (≈ 0.254 µM) | 0.39 (≈ 0.991 µM) | 
4 | COc1c(N2C[C@@H](N)[C@@H](C)C2)c(F)cc2c(=O)c(C(=O)O)cn(C3CC3)c12 [formula (VI)] |  |  |  |  |  |  |  |  |  |  |  |  |  | positive
